Results: ChEMBL document CHEMBL4000245, “Discovery and biological evaluation of some (1H-1,2,3-triazol-4-yl)methoxybenzaldehyde derivatives containing an anthraquinone moiety as potent xanthine oxidase inhibitors” (Bioorg Med Chem Lett, 2017)

Columns and labels:
[1] = biological target: T1, Xanthine dehydrogenase/oxidase (Bos taurus, UniProt P80457); assay: Inhibition of bovine xanthine oxidase assessed as reduction in uric acid levels at 50 uM using xanthine as substrate after 120 mins by spectrophotometry; details: cattle, 2 h
[2] = biological target: T1, Xanthine dehydrogenase/oxidase; assay: Inhibition of bovine xanthine oxidase assessed as reduction in uric acid levels using xanthine as substrate after 120 mins by spectrophotometry
[3] = biological target: T1, Xanthine dehydrogenase/oxidase; assay: Mixed-type inhibition of bovine xanthine oxidase assessed as enzyme-inhibitor complex using xanthine as substrate after 60 secs by Lineweaver-Burk plot method
[4] = biological target: T1, Xanthine dehydrogenase/oxidase; assay: Potency index, ratio of allopurinol IC50 to compound IC50 for inhibition of bovine xanthine oxidase; details: cattle
[5] = biological target: T1, Xanthine dehydrogenase/oxidase; assay: Mixed-type inhibition of bovine xanthine oxidase assessed as enzyme-inhibitor-substrate complex using xanthine as substrate after 60 secs by Lineweaver-Burk plot method

T1 sequence (P80457 whole entry): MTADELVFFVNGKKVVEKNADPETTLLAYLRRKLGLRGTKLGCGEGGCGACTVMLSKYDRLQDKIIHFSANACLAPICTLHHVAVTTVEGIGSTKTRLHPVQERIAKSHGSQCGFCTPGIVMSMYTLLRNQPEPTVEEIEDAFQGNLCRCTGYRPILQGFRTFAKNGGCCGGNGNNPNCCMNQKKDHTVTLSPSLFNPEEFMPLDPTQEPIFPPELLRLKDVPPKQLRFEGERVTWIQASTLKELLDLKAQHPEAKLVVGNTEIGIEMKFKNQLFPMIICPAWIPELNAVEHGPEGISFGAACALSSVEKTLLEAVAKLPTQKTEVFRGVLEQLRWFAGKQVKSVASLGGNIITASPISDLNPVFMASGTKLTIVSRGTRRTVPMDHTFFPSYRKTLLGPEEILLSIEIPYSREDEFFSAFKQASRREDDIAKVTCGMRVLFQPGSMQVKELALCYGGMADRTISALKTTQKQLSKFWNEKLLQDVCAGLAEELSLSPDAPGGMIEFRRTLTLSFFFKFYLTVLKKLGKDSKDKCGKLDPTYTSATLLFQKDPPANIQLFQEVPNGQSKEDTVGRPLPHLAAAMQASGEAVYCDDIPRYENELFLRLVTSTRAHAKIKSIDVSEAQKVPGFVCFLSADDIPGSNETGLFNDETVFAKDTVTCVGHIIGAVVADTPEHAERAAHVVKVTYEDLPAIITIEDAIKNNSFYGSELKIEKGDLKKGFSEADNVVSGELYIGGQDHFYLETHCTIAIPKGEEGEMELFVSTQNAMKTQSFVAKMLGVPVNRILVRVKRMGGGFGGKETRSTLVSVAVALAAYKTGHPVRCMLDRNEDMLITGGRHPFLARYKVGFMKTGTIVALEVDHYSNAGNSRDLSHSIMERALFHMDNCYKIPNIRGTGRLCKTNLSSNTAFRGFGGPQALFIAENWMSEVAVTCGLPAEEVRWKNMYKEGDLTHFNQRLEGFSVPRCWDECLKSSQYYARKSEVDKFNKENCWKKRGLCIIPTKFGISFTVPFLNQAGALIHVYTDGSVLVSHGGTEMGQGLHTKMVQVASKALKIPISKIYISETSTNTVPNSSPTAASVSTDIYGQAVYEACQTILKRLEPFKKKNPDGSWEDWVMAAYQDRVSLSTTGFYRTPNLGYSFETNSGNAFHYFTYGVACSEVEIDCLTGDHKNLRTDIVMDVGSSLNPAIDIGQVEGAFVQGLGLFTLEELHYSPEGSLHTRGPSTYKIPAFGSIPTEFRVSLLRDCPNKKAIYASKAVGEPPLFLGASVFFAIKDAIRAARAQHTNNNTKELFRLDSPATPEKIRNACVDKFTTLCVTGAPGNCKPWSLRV

| SMILES | inhibition at 50 µM [1] [%] | IC50 [2] [µM] | further results |
| --- | --- | --- | --- |
| Oc1ncnc2[nH]ncc12 [ALLOPURINOL] | 95.1 | – | – |
| CCCCCCn1cc(COc2ccc(F)cc2C=O)nn1 | 93 | 9 | – |
| CCCCCCn1cc(COc2ccccc2C=O)nn1 | 43.5 | – | – |
| CCN(CC)c1ccc(C=O)c(OCc2cn(Cc3ccc4c(c3)C(=O)c3ccccc3C4=O)nn2)c1 | 9.8 | – | – |
| O=Cc1cc(Br)ccc1OCc1cn(Cc2ccc3c(c2)C(=O)c2ccccc2C3=O)nn1 | 21.1 | – | – |
| O=Cc1ccccc1OCc1cn(Cc2ccccc2)nn1 | 46.7 | – | – |
| O=Cc1cc(Cl)ccc1OCc1cn(Cc2ccc3c(c2)C(=O)c2ccccc2C3=O)nn1 | 61.1 | 46.5 | – |
| COc1cc(C=O)cc(OC)c1OCc1cn(Cc2ccc3c(c2)C(=O)c2ccccc2C3=O)nn1 | 70.3 | 16.8 | – |
| O=C1c2ccccc2C(=O)c2cc(Cn3cc(CO)nn3)ccc21 | 31 | – | – |
| O=Cc1cc(F)ccc1OCc1cn(Cc2ccccc2)nn1 | 83.4 | 21.5 | – |

The next lines start with results.

| inhibition at 50 µM [1] [%] | IC50 [2] [µM] | SMILES | further results |
| --- | --- | --- | --- |
| 7 | – | N#Cc1ccc(OCc2cn(Cc3ccc4c(c3)C(=O)c3ccccc3C4=O)nn2)cc1 | – |
| 90.7 | 0.6 | O=Cc1ccccc1OCc1cn(Cc2ccc3c(c2)C(=O)c2ccccc2C3=O)nn1 | Ki [3]: 570 nM; Ratio IC50 [4]: > 10; Ki [5]: 940 nM |
| 24.2 | – | O=C(O)c1ccccc1OCc1cn(Cc2ccc3c(c2)C(=O)c2ccccc2C3=O)nn1 | – |
| 18.4 | – | O=C1c2ccccc2C(=O)c2cc(Cn3cc(COc4ccccc4)nn3)ccc21 | – |
| 67.5 | 30.5 | O=Cc1ccc(OCc2cn(Cc3ccc4c(c3)C(=O)c3ccccc3C4=O)nn2)cc1 | – |
| 77.2 | 15.1 | O=Cc1cccc(OCc2cn(Cc3ccc4c(c3)C(=O)c3ccccc3C4=O)nn2)c1 | – |
| 20.1 | – | CC(=O)Nc1ccc(OCc2cn(Cc3ccc4c(c3)C(=O)c3ccccc3C4=O)nn2)cc1 | – |
| 19.4 | – | CC(=O)OCc1cn(Cc2ccc3c(c2)C(=O)c2ccccc2C3=O)nn1 | – |
| 88 | 0.8 | O=Cc1cc(F)ccc1OCc1cn(Cc2ccc3c(c2)C(=O)c2ccccc2C3=O)nn1 | Ratio IC50 [4]: > 10 |
| 70.8 | 6.5 | O=Cc1ccc(F)cc1OCc1cn(Cc2ccc3c(c2)C(=O)c2ccccc2C3=O)nn1 | – |
| 12.7 | – | O=C1c2ccccc2C(=O)c2cc(Cn3cc(COc4c(Cl)cccc4Cl)nn3)ccc21 | – |
